Measurements taken from patent publication US20030118577A1, “Use of analogues of superoxide dismutase for treating hepatocellular insufficiencies” (priority 2000, published 2003).

How the values were obtained:
[1] = system: hepatocellular insufficiency induced by chronic intoxication with DMNA; assay: Chronic intoxication with DMNA, histological examination; type: in vivo, mice
Procedure: The inventors also investigated the effects of MnSOD mimetics on hepatocellular insufficiency of toxic origin which can be induced in particular by alcohol, using an experimental model of intoxication with dimethylnitrosamine (DMNA) administered at the dose of 10 mg/kg in mice. This model is similar to intoxication with alcohol because the lesions induced by DMNA and alcohol are identical.
Intraperitoneal administration of 10 mg/kg/day of DMNA three times per week induces, in dogs and rodents, centrolobular and periportal lesions comprising fibrosis at the 4th week, and cirrhosis at the 13th week [RISTELLI et al., J. Biochem., 158, 361-367, (1976); MADDEN et al., Surgery, 68, 260-267, (1970)].

[2] = system: acute hepatic insufficiency induced by anti-Fas antibodies; assay: Survival of mice after injection of anti-Fas antibody (fulminant hepatitis); type: in vivo; details: at 24 hours; 6 μg anti-Fas antibody iv; MnTBAP 10 mg/kg 2 hours beforehand; FIG. 3
Procedure: The injection of these antibodies into mice causes fulminant hepatitis due to a massive apoptosis of the hepatocytes, causing the death of the mice within a few hours following the injection [OGASAWARA et al., Nature, 364, pp. 806-809, (1993); NAGATA, Prog. Mol. Subcell. Biol., 16, pp. 87-103, (1996)].
27 control mice received, by intravenous injection, 6 μg of an anti-Fas monoclonal antibody (clone J02; PHARMINGEN) diluted in 100 μl of physiological saline; a second group of 15 mice received the same treatment, preceded by the administration, 2 hours beforehand, of 10 mg/kg of MnTBAP, as described in Example 1 above; a control group received MnTBAP alone (10 mg/kg).

[3] = system: acute hepatic insufficiency induced by acetaminophen; assay: Histological study of livers after acetaminophen; type: in vivo; details: mice which received acetaminophen, treated with MnTBAP
Source text: In each of the groups, the livers of several animals were removed, in order to carry out a histological study.

[4] = known; cited from earlier work
[5] = system: acute hepatic insufficiency induced by acetaminophen; assay: Survival of mice after intraperitoneal acetaminophen (acute hepatic insufficiency); details: for rate of survival: 24 hours after acetaminophen 1000 mg/kg ip, FIG. 1
Procedure: The intraperitoneal injection of acetaminophen into mice induces a severe hepatotoxicity, the degree of which may be evaluated by the survival of the animals, measuring transaminase activities, and macroscopic and microscopic examination of the livers.
The acetaminophen in solution at 100 mg/ml in PBS at pH 7.4 is administered by the intraperitoneal route.
In a first series of experiments, a group of mice received a dose of 1000 mg/kg of acetaminophen; a second group received a dose of 1000 mg/kg of acetaminophen and a dose of 10 mg/kg of MnTBAP administered either 2 h before the acetaminophen or 6 h after; a control group received either MnTBAP alone (10 mg/kg), or PBS alone.
The survival of the animals is monitored for 24 hours after the administration of acetaminophen.
The effect of N-acetyl-L-cysteine (NAC), of CuDIPS, and of MnTBAP on the survival of mice after intraperitoneal injection of 1000 mg/kg of acetaminophen (APAP) was compared.
MnTBAP, NAC, or CuDIPS are administered in the form of a bolus, preventively, 2 hours before (P) or, curatively, 6 hours after (C) the acetaminophen.
The survival of the animals is monitored for 24 hours after administration of acetaminophen.

O=C(O)c1ccc(-c2c3nc(c(-c4ccc(C(=O)O)cc4)c4ccc([n-]4)c(-c4ccc(C(=O)O)cc4)c4nc(c(-c5ccc(C(=O)O)cc5)c5ccc2[n-]5)C=C4)C=C3)cc1.[Mn+3] [MnTBAP, Mn(III) tetrakis(5,10,15,20-benzoic acid)porphyrin]
appearance of hepatic lesions on histological sections ([1]; DMNA 10 mg/kg in mice, different intoxication times): delays the appearance of hepatic lesions | constitution of fibrosis on histological examination ([1]; DMNA 10 mg/kg/day ip three times per week, MnTBAP 10 mg/kg ip 24 hours after each DMNA): prevents the constitution of objectively viable fibrosis | rate of survival [2]: ~60% | apoptotic lesions in liver, versus untreated animals [3]: a lot fewer apoptotic lesions | catalase activity [4]: known to possess a catalase activity | rate of survival ([5]; MnTBAP 10 mg/kg ip 2 h before acetaminophen): ~60% | rate of survival ([5]; MnTBAP 10 mg/kg ip 6 h after acetaminophen): greater than 40% | effect on survival rate, administered preventively ([5]; APAP 1000 mg/kg, 2 hours before (P)): increases the survival rate in a manner at least equal to NAC | activity on survival, curative versus preventive administration ([5]; APAP 1000 mg/kg, 6 hours after (C) or 2 hours before (P)): active when it is administered curatively | activity on survival by the oral route ([5]; APAP 1000 mg/kg, per os): active | percentage of surviving animals ([5]; Group II: MnTBAP 10 mg/kg alone, no APAP, time 0 h): 100% | percentage of surviving animals ([5]; Group II: MnTBAP 10 mg/kg alone, no APAP, time 6 h): 100% | percentage of surviving animals ([5]; Group II: MnTBAP 10 mg/kg alone, no APAP, time 8 h): 100% | percentage of surviving animals ([5]; Group II: MnTBAP 10 mg/kg alone, no APAP, time 9 h): 100% | percentage of surviving animals ([5]; Group II: MnTBAP 10 mg/kg alone, no APAP, time 10 h): 100% | percentage of surviving animals ([5]; Group II: MnTBAP 10 mg/kg alone, no APAP, time 11 h): 100% | percentage of surviving animals ([5]; Group II: MnTBAP 10 mg/kg alone, no APAP, time 12 h): 100% | percentage of surviving animals ([5]; Group II: MnTBAP 10 mg/kg alone, no APAP, time 13 h): 100% | percentage of surviving animals ([5]; Group II: MnTBAP 10 mg/kg alone, no APAP, time 14 h): 100% | percentage of surviving animals ([5]; Group II: MnTBAP 10 mg/kg alone, no APAP, time 15 h): 100% | percentage of surviving animals ([5]; Group II: MnTBAP 10 mg/kg alone, no APAP, time 16 h): 100% | percentage of surviving animals ([5]; Group II: MnTBAP 10 mg/kg alone, no APAP, time 17 h): 100% | percentage of surviving animals ([5]; Group II: MnTBAP 10 mg/kg alone, no APAP, time 18 h): 100% | percentage of surviving animals ([5]; Group II: MnTBAP 10 mg/kg alone, no APAP, time 20 h): 100% | percentage of surviving animals ([5]; Group II: MnTBAP 10 mg/kg alone, no APAP, time 22 h): 100% | percentage of surviving animals ([5]; Group II: MnTBAP 10 mg/kg alone, no APAP, time 24 h): 100% | percentage of surviving animals ([5]; Group IX: APAP 1000 mg/kg, MnTBAP 50 mg/kg (P) per os, time 0 h): 100% | percentage of surviving animals ([5]; Group IX: APAP 1000 mg/kg, MnTBAP 50 mg/kg (P) per os, time 6 h): 100% | percentage of surviving animals ([5]; Group IX: APAP 1000 mg/kg, MnTBAP 50 mg/kg (P) per os, time 8 h): 88.8% | percentage of surviving animals ([5]; Group IX: APAP 1000 mg/kg, MnTBAP 50 mg/kg (P) per os, time 9 h): 88.8% | percentage of surviving animals ([5]; Group IX: APAP 1000 mg/kg, MnTBAP 50 mg/kg (P) per os, time 10 h): 88.8% | percentage of surviving animals ([5]; Group IX: APAP 1000 mg/kg, MnTBAP 50 mg/kg (P) per os, time 11 h): 88.8% | percentage of surviving animals ([5]; Group IX: APAP 1000 mg/kg, MnTBAP 50 mg/kg (P) per os, time 12 h): 88.8% | percentage of surviving animals ([5]; Group IX: APAP 1000 mg/kg, MnTBAP 50 mg/kg (P) per os, time 13 h): 88.8% | percentage of surviving animals ([5]; Group IX: APAP 1000 mg/kg, MnTBAP 50 mg/kg (P) per os, time 14 h): 88.8% | percentage of surviving animals ([5]; Group IX: APAP 1000 mg/kg, MnTBAP 50 mg/kg (P) per os, time 15 h): 88.8% | percentage of surviving animals ([5]; Group IX: APAP 1000 mg/kg, MnTBAP 50 mg/kg (P) per os, time 16 h): 88.8% | percentage of surviving animals ([5]; Group IX: APAP 1000 mg/kg, MnTBAP 50 mg/kg (P) per os, time 17 h): 77.7% | percentage of surviving animals ([5]; Group IX: APAP 1000 mg/kg, MnTBAP 50 mg/kg (P) per os, time 18 h): 66.6% | percentage of surviving animals ([5]; Group IX: APAP 1000 mg/kg, MnTBAP 50 mg/kg (P) per os, time 20 h): 66.6% | percentage of surviving animals ([5]; Group IX: APAP 1000 mg/kg, MnTBAP 50 mg/kg (P) per os, time 22 h): 66.6% | percentage of surviving animals ([5]; Group IX: APAP 1000 mg/kg, MnTBAP 50 mg/kg (P) per os, time 24 h): 66.6% | percentage of surviving animals ([5]; Group V: APAP 1000 mg/kg, MnTBAP 10 mg/kg (P), time 0 h): 100% | percentage of surviving animals ([5]; Group V: APAP 1000 mg/kg, MnTBAP 10 mg/kg (P), time 6 h): 100% | percentage of surviving animals ([5]; Group V: APAP 1000 mg/kg, MnTBAP 10 mg/kg (P), time 8 h): 100% | percentage of surviving animals ([5]; Group V: APAP 1000 mg/kg, MnTBAP 10 mg/kg (P), time 9 h): 91.4% | percentage of surviving animals ([5]; Group V: APAP 1000 mg/kg, MnTBAP 10 mg/kg (P), time 10 h): 88.6% | percentage of surviving animals ([5]; Group V: APAP 1000 mg/kg, MnTBAP 10 mg/kg (P), time 11 h): 77.1% | percentage of surviving animals ([5]; Group V: APAP 1000 mg/kg, MnTBAP 10 mg/kg (P), time 12 h): 74.3% | percentage of surviving animals ([5]; Group V: APAP 1000 mg/kg, MnTBAP 10 mg/kg (P), time 13 h): 74.3% | percentage of surviving animals ([5]; Group V: APAP 1000 mg/kg, MnTBAP 10 mg/kg (P), time 14 h): 71.4% | percentage of surviving animals ([5]; Group V: APAP 1000 mg/kg, MnTBAP 10 mg/kg (P), time 15 h): 71.4% | percentage of surviving animals ([5]; Group V: APAP 1000 mg/kg, MnTBAP 10 mg/kg (P), time 16 h): 68.6% | percentage of surviving animals ([5]; Group V: APAP 1000 mg/kg, MnTBAP 10 mg/kg (P), time 17 h): 68.6%
